Reference: US20030149088A1, “HIV treatment” (priority 2000, published 2003)
“And” between values parts separate entries of the source, which are not always exact repeats. Equal values may be shown once.

Tests used:
HIV = experiment: microbe, parasite or virus in culture; format: cell-based; details: in vitro acute model
HIV virus, ROJO in PBMC = experiment: Reverse transcriptase activity against ROJO in PBMC; format: cell-based; parameters: Reverse Transcriptase Activity, Sample 1-3 / Reverse Transcriptase Activity, Mean: unit not given here; details: for Reverse Transcriptase Activity, Sample 1-3: individual samples
[1] = tested on: Chronic HIV-1 infected cells U1; experiment: Chronic HIV study, HIV replication in monocytes (U1 cells); format: cell-based
Method: (§1) Chronic HIV-1 infected cells U1 were derived from an acute HIV-1 infection of the promonocytic cell line, U937. The chronic HIV-1 infected cells, ACH-2 were derived from an acute HIV-1 infection of the T cell line, A3.01.
(§2) These cells were cultured in medium and the phorbol ester, PMA. PMA causes the cells (both U1 and ACH-2) to be activated and not divide but it also causes the U-1 cells to differentiate. […] Cell viability was measured when these cell lines were treated with the test compound.
(§3) Both cell lines constituitively produce a small amount of HIV-1. ACH-2 cell lines tend to produce more HIV-1 than U1 cells as shown by p-24 ELISA. When either cell line is cultured in the presence of PMA there is an increase in the quantity of HIV-1 produced as measured by the p-24 antigen ELISA.
(§4) In addition, the number of […] positive HIV mRNA expressing cells per microscopic field is measured. Comparisons can be made from these numbers since the same number of cells were adhered to the glass slides for each drug concentration (10×10^6 cells/ml).

[2] = tested on: chronic HIV-1 infected cells, ACH-2; experiment: Chronic HIV study, T-cell HIV replication (ACH-2 cells); format: cell-based; details: increase, not suppression
Method: as §1, §2, §3, §4

PBMC = experiment: Toxicity values, XTT-based evaluation (cell titer O.D.), ROJO in PBMC; details: for Toxicity Values (Cell titer), Sample 1-3: individual samples

## c1ccc2[nH]c(-c3cscn3)nc2c1 [2-(4-thiazolyl)-1H-benzimidazole]
HIV; Human immunodeficiency virus 1, at 60 μg/ml, read-out: inhibited viral replication
  inhibition at 60 µg/mL: 98%

## Cc1cn([C@H]2C[C@H](N=[N+]=[N-])[C@@H](CO)O2)c(=O)[nH]c1=O [AZT, reference compound]
HIV virus, ROJO in PBMC; 0.0004 μg/ml
  Reverse Transcriptase Activity, % virus control: 101.5%
  Reverse Transcriptase Activity, Sample 1-3: 1.043 and 0.966 and 1.143
HIV virus, ROJO in PBMC; 0.0013 μg/ml
  Reverse Transcriptase Activity, % virus control: 101.4%
HIV virus, ROJO in PBMC; 0.004 μg/ml
  Reverse Transcriptase Activity, % virus control: 98.5%
  Reverse Transcriptase Activity, Mean: 1.019
  Reverse Transcriptase Activity, Sample 1-3: 1.005 and 1.004 and 1.048
HIV virus, ROJO in PBMC; 0.013 μg/ml
  Reverse Transcriptase Activity, % virus control: 101.2%
  Reverse Transcriptase Activity, Sample 1-3: 1.024 and 1.061 and 1.056
HIV virus, ROJO in PBMC; 0.04 μg/ml
  Reverse Transcriptase Activity, % virus control: 0.7%
  Reverse Transcriptase Activity, Mean: 168
  Reverse Transcriptase Activity, Sample 1-3: 176 and 108 and 220
HIV virus, ROJO in PBMC; 0.13 μg/ml
  Reverse Transcriptase Activity, % virus control: 0.5%
  Reverse Transcriptase Activity, Mean: 110.7
  Reverse Transcriptase Activity, Sample 1-3: 108 and 168 and 56
HIV virus, ROJO in PBMC; 0.4 μg/ml
  Reverse Transcriptase Activity, % virus control: 0.7%
  Reverse Transcriptase Activity, Mean: 172
  Reverse Transcriptase Activity, Sample 1-3: 340 and 80 and 96
HIV virus, ROJO in PBMC; 1.3 μg/ml
  Reverse Transcriptase Activity, % virus control: .04%
  Reverse Transcriptase Activity, Mean: 93.3
  Reverse Transcriptase Activity, Sample 1-3: 68 and 120 and 92
HIV virus, ROJO in PBMC; 4 μg/ml
  Reverse Transcriptase Activity, % virus control: 0.4%
  Reverse Transcriptase Activity, Mean: 98.7
  Reverse Transcriptase Activity, Sample 1-3: 108 and 104 and 84
HIV; at 1 μg/ml
  inhibited viral replication: 98%

## COC(=O)Nc1nc2ccccc2[nH]1 [Carbendazim, 2-(methoxycarbonylamino)benzimidazole]
HIV virus, ROJO in PBMC; 0.01 μg/ml
  Reverse Transcriptase Activity, % virus control: 110.4%
  Reverse Transcriptase Activity, Mean: 26107
  Reverse Transcriptase Activity, Sample 1-3: 24174 and 32124 and 22024
HIV virus, ROJO in PBMC; 0.032 μg/ml
  Reverse Transcriptase Activity, % virus control: 96.6%
  Reverse Transcriptase Activity, Mean: 22851
  Reverse Transcriptase Activity, Sample 1-3: 23225 and 17108 and 19000
HIV virus, ROJO in PBMC; 0.1 μg/ml
  Reverse Transcriptase Activity, % virus control: 74.1%
  Reverse Transcriptase Activity, Mean: 17513
  Reverse Transcriptase Activity, Sample 1-3: 1394.0 and 16747 and 12569
HIV virus, ROJO in PBMC; 0.32 μg/ml
  Reverse Transcriptase Activity, % virus control: 47.1%
  Reverse Transcriptase Activity, Mean: 11143
  Reverse Transcriptase Activity, Sample 1-3: 200 and 8787 and 11249
HIV virus, ROJO in PBMC; 1 μg/ml
  Reverse Transcriptase Activity, % virus control: 3.7%
  Reverse Transcriptase Activity, Mean: 885.3
  Reverse Transcriptase Activity, Sample 1-3: 1394 and 685.0 and 577.0
HIV virus, ROJO in PBMC; 3.2 μg/ml
  Reverse Transcriptase Activity, % virus control: 0.6%
  Reverse Transcriptase Activity, Mean: 138.7
  Reverse Transcriptase Activity, Sample 1-3: 200 and 100 and 116
HIV virus, ROJO in PBMC; 10 μg/ml
  Reverse Transcriptase Activity, % virus control: 0.6%
  Reverse Transcriptase Activity, Mean: 153.3
  Reverse Transcriptase Activity, Sample 1-3: 136 and 216 and 108
HIV virus, ROJO in PBMC; 32 μg/ml
  Reverse Transcriptase Activity, % virus control: 0.6%
  Reverse Transcriptase Activity, Mean: 130.7
  Reverse Transcriptase Activity, Sample 1-3: 124 and 180 and 88.0
HIV virus, ROJO in PBMC; 100 μg/ml
  Reverse Transcriptase Activity, % virus control: 0.5%
  Reverse Transcriptase Activity, Mean: 122.7
  Reverse Transcriptase Activity, Sample 1-3: 132 and 84.0 and 152.0
[1]
  suppressed replication in the HIV monocytes: 9%
[2]
  T-cell HIV replication was increased: 44%
HIV; Human immunodeficiency virus 1, at 4 μg/ml, read-out: inhibited viral replication
  inhibition at 4 µg/mL: 100%
PBMC; 0.01 μg/ml
  Toxicity Values (Cell titer), Mean: 1.138 O.D. @ 490/650 nm
  Toxicity Values, % cell control: 109.9%
  Toxicity Values (Cell titer), Sample 1-3: 1.115 O.D. @ 490/650 nm and 1.180 O.D. @ 490/650 nm and 1.118 O.D. @ 490/650 nm
PBMC; 0.032 μg/ml
  Toxicity Values (Cell titer), Mean: 1.182 O.D. @ 490/650 nm
  Toxicity Values, % cell control: 114.2%
  Toxicity Values (Cell titer), Sample 1-3: 1.143 O.D. @ 490/650 nm and 1.198 O.D. @ 490/650 nm and 1.204 O.D. @ 490/650 nm
PBMC; 0.1 μg/ml
  Toxicity Values (Cell titer), Mean: 1.157 O.D. @ 490/650 nm
  Toxicity Values, % cell control: 111.8%
  Toxicity Values (Cell titer), Sample 1-3: 1.145 O.D. @ 490/650 nm and 1.080 O.D. @ 490/650 nm and 1.246 O.D. @ 490/650 nm
PBMC; 0.32 μg/ml
  Toxicity Values (Cell titer), Mean: 1.049 O.D. @ 490/650 nm
  Toxicity Values, % cell control: 101.4%
  Toxicity Values (Cell titer), Sample 1-3: 1.031 O.D. @ 490/650 nm and 1.050 O.D. @ 490/650 nm and 1.067 O.D. @ 490/650 nm
PBMC; 1 μg/ml
  Toxicity Values (Cell titer), Mean: 1.004 O.D. @ 490/650 nm
  Toxicity Values, % cell control: 97.0%
  Toxicity Values (Cell titer), Sample 1-3: 1.019 O.D. @ 490/650 nm and 1.003 O.D. @ 490/650 nm and 0.991 O.D. @ 490/650 nm
PBMC; 3.2 μg/ml
  Toxicity Values (Cell titer), Mean: 0.992 O.D. @ 490/650 nm
  Toxicity Values, % cell control: 95.8%
  Toxicity Values (Cell titer), Sample 1-3: 1.013 O.D. @ 490/650 nm and 1.003 O.D. @ 490/650 nm and 0.959 O.D. @ 490/650 nm
PBMC; 10 μg/ml
  Toxicity Values (Cell titer), Mean: 0.944 O.D. @ 490/650 nm
  Toxicity Values, % cell control: 91.2%
  Toxicity Values (Cell titer), Sample 1-3: 1.001 O.D. @ 490/650 nm and 0.858 O.D. @ 490/650 nm and 0.973 O.D. @ 490/650 nm
PBMC; 32 μg/ml
  Toxicity Values (Cell titer), Mean: 0.845 O.D. @ 490/650 nm
  Toxicity Values, % cell control: 81.6%
  Toxicity Values (Cell titer), Sample 1-3: 0.864 O.D. @ 490/650 nm and 0.835 O.D. @ 490/650 nm and 0.836 O.D. @ 490/650 nm
PBMC; 100 μg/ml
  Toxicity Values (Cell titer), Mean: 0.807 O.D. @ 490/650 nm
  Toxicity Values, % cell control: 77.9%
  Toxicity Values (Cell titer), Sample 1-3: 0.839 O.D. @ 490/650 nm and 0.782 O.D. @ 490/650 nm and 0.799 O.D. @ 490/650 nm
